Experimental data from US20070099995A1, “Use of hydroxyoleic acid and related compounds as functional food additives” (priority 2003, published 2007).

Experiments:
[1] = Hypotensive test: systolic arterial pressure in female Sprague-Dawley rats; type: in vivo, rat; conditions: for reduction of blood pressure: rats; for effect on systolic arterial pressure with respect to the control: short-term (2 to 4 hours) administration, female Sprague-Dawley rats, FIG. 5
Procedure: (§1) 2-Hydroxyoleic acid induced significant reductions of blood pressure in rats (FIG. 4a). These reductions occurred rapidly (at 2 hours of treatment, 19±6 mmHg, P<0.01, n=6) and after a long period (1 week, 26±7 mmHg, P<0.001, n=6). In genetically hypertensive rats, SHR strain, ingestion of 2-hydroxyoleic acid (600 mg/kg every 12 hours) produced very marked reductions in blood pressure. These reductions, of some 70 mmHg, induced normalization of systolic pressure in hypertensive SHR rats.

Blood pressure in humans = type: in vivo, human; conditions: 90 mg/kg per day for 8 days, FIG. 4b
Description: The days prior to treatment are shown with negative values. *P<0.05, **P<0.01.

[2] = Systolic arterial pressure in genetically hypertensive rats, SHR strain; type: in vivo, rat
Procedure: as §1
(§2) In SHRs which were not given 2-hydroxyoleic acid (SHR empty squares), no reduction in arterial pressure was observed. […] The reduction induced by hydroxyoleic acid on arterial pressure meant that there was no significant difference between the values registered at the end of the diet period for the hypertensive and normotensive rats.

[3] = Body weight of normotensive (WKY) and hypertensive (SHR) rats; type: in vivo, rat; conditions: 600 mg/kg every 12 hours, 8 days
Procedure: In another series of experiments, the diet of normotensive rats (WKY) and hypertensive rats (SHR) was supplemented with hydroxyoleic acid (600 mg/kg, every 12 hours) and it was confirmed that the weight of the animals decreased by between 30 and 40 grams (15-20% of the body weight) in an 8-day diet period (FIG. 8).

[4] = Systolic arterial pressure in normotensive WKY rats; type: in vivo, rat; conditions: male WKY (normotensive) rats, 600 mg/kg every 12 hours for 7 days, FIG. 6
Procedure: as §1, §2

G-proteins = experiment: Binding of [35S]GTPγS to membranes of NIH 3T3 cells transfected with the rat adrenoceptor α2A/D (activity of G-proteins); type: biochemical; conditions: membranes of NIH 3T3 cells transfected with rat adrenoceptor α2A/D; FIG. 2; compared with daunomycin
Description: Hydroxyoleic acid and related compounds are capable of modulating the activity of G-proteins, measured by the binding of [^35S] GTPγS (FIG. 2). […] Abscissa: C=control; 2OHOA=2-hydroxyoleic; DNM=daunomycin. Ordinate: Binding of [^35S]GTPγS (% of control).

[5] = Blood pressure and heart rate after ingestion (species not stated); type: in vivo; conditions: chronic treatments lasting a week
Procedure: The hypotensive effect produced by ingestion of 2-hydroxyoleic acid and its analogs results in a reduction in blood pressure within 2 hours of ingestion, and this is maintained for days and weeks while ingestion of this compound is maintained. Aminoleic acid, for example, reduces blood pressure by 15 mmHg in chronic treatments lasting a week.

CCCCCCCC/C=C\CCCCCCC(O)C(=O)O (stereo not drawn) [2-hydroxyoleic acid, cis-2-hydroxy-9-octadecenoic acid]
reduction of blood pressure ([1]; 1 week (chronic, 90 mg/kg per day for 7 days, FIG. 4a), n=6, P<0.001): 26±7 mmHg
reduction of blood pressure ([1]; at 2 hours of treatment (acute, 30 mg/kg, FIG. 4a), n=6, P<0.01): 19±6 mmHg
effect on systolic arterial pressure with respect to the control [1]: significant decreases
effect on blood pressure (Blood pressure in humans): significant, large decreases
reduction in blood pressure (systolic) ([2]; SHR rats, 600 mg/kg every 12 hours): ~70 mmHg
effect on systolic arterial pressure ([2]; male SHR rats, 600 mg/kg every 12 hours for 7 days, FIG. 6): significant, large reductions
reduction in body weight [3]: 15-20%
effect on arterial pressure [4]: neither the 2-hydroxyoleic acid (black circles) nor the vehicle (empty circles) produced statistically significant changes
Binding of [35S]GTPγS (function of the G-proteins) (G-proteins): decrease in function of the G-proteins even greater than daunomycin

CCCCCCCC/C=C\CCCCCCC(C)C(=O)O (stereo not drawn) [2-methyl oleic acid]
effect on systolic arterial pressure with respect to the control [1]: significant decreases

CCCCCC/C=C\CCCCCCCCCC(=O)O [cis-vaccenic acid]
effect on systolic arterial pressure with respect to the control [1]: significant decreases

CCCCCCCC/C=C\CCCCCCCCCCCCCC(=O)O [nervonic acid]
effect on systolic arterial pressure with respect to the control [1]: significant decreases

CCCCCCCC/C=C\CCCCCCCC(=O)O [oleic acid]
effect on systolic arterial pressure with respect to the control [1]: significant decreases

CCCCCC/C=C\CCCCCCCC(=O)O [palmitoleic acid]
effect on systolic arterial pressure with respect to the control [1]: significant decreases

Aminoleic acid
reduction of blood pressure [5]: 15 mmHg
